Experimental data published in US20220380347A1, “INHIBITORS OF CYSTEINE PROTEASES AND METHODS OF USE THEREOF” (Pardes Biosciences, Inc., priority 2020, published 2022).
Like-named read-outs stand apart in the source and are kept apart here.

Assays:
229E Mpro = 229E Mpro (Human coronavirus 229E, UniProt P0C6X1); assay: 229E Mpro enzymatic assay (standard methods, SARS-CoV2 Mpro assay given as exemplary); format: biochemical, human coronavirus (HCov) 229E
Procedure, shortened: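 IC50 for 229E Mpro by standard methods; exemplary SARS-CoV-2 protocol used C-His6-tagged Mpro from E. coli, 25 nM enzyme, 25 μM substrate (Km 13.5 μM), in Tris-HCl pH 7.3, NaCl, EDTA, TCEP, 0.1% BSA. Inhibition normalised to no-compound and full-effect controls; four-parameter fit.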

HCoV 229E = HCoV 229E cytopathic effect (CPE) assay, CellTiter Glo; format: cell-based, human coronavirus (HCov) 229E; settings: protection of virus-induced CPE
[1] = Cytotoxicity in parallel to the 229E CPE assay, without virus infection, CellTiter Glo; settings: 229E CC50, without virus infection
Experimental: (§1) Reagents and instruments used in this assay include luminescent cell viability assay kit CellTiter Glo (Promega) and Microplate Reader Synergy2 (BioTek).
(§2) The cytotoxicity of compounds was assessed under the same conditions, but without virus infection, in parallel. Cell viability was measured with CellTiter Glo. The antiviral activity and cytotoxicity of compounds were expressed as % Inhibition and % Viability, respectively, and calculated with formulas.

[2] = biological target: COVID-19 (nCoV-2019, SARS-CoV2) Mpro (Severe acute respiratory syndrome coronavirus 2, UniProt P0DTD1); assay: COVID-19 (nCoV-2019, SARS-CoV2) Mpro enzymatic assay; format: biochemical; settings: 25 nM Mpro, 25 μM substrate; read-out: COVID-19 Mpro IC50
HCov OC43 = assay: HCoV OC43 cytopathic effect (CPE) assay, CellTiter Glo; format: cell-based, human coronavirus (HCov) OC43
[3] = tested on: cells without virus infection; assay: Cytotoxicity in parallel to the 229E CPE assay, without virus infection, CellTiter Glo; settings: read-out: 229E CC50; without virus infection
Experimental: as §1, §2

[4] = Betacoronavirus 1, OC43, read-out: OC43 IC50 (uM) MEDIAN, median

Sequence of 229E Mpro (P0C6X1 2966-3267): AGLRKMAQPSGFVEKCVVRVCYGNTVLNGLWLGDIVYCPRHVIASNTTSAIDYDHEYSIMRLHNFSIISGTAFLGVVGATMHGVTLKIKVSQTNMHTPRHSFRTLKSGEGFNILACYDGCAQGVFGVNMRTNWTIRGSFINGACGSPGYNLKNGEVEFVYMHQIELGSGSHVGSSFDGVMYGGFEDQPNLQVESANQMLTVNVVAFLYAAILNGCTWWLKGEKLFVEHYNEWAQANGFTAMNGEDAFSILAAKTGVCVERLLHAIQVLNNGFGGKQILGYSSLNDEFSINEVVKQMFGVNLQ

Structure (SMILES) | EC50 (229E Mpro; 229E Mpro EC50) | EC50 (HCoV 229E; unidentified human coronavirus) | CC50 [1] | IC50 [2] | EC50 (229E Mpro; read-out: 229E Mpro EC50) | IC50 (HCov OC43; [4]) | EC50 (HCoV 229E) | IC50 (HCov OC43; read-out: OC43 IC50 (uM) MEDIAN, median) | CC50 [3] | IC50 (HCov OC43; read-out: OC43 IC50 (uM) MEDIAN, median, listed as 427 Isomer 2)
C[C@@H]1CC[C@H](C(=O)N(c2ccc(C(C)(C)C)cc2)C(C(=O)NC2CCCCC2)c2cccnc2)N1C#N (single isomer, unassigned) [Compound 244 Isomer 1] | < 2 µM | < 2 µM | > 30 µM | 2 to 10 µM |  |  |  |  |  | 
CC(C)(C)c1ccc(N(C(=O)c2c[nH]cn2)C(C(=O)NC2CCCCC2)c2cccnc2C#N)cc1 (stereo not drawn) [Compound 100, N-(4-tert-butylphenyl)-N-[1-(2-cyano-3-pyridyl)-2-(cyclohexylamino)-2-oxo-ethyl]-1H-imidazole-5-carboxamide] | 2 to 10 µM | 2 to 10 µM | > 30 µM | 10 to 30 µM |  |  |  |  |  | 
CC(C)(C)c1ccc(C(C(=O)c2cnc[nH]2)C(C(=O)NC2CCCCC2)c2nccnc2C#N)cc1 (stereo not drawn) [Compound 105] | 10 to 30 µM | 2 to 10 µM | > 30 µM | > 30 µM |  |  |  |  |  | 
CC(C)(C)c1ccc(N(C(=O)c2cnc[nH]2)C(C(=O)NC2CCCCC2)c2cncnc2C#N)cc1 (stereo not drawn) [Compound 103, N-(4-(tert-butyl)phenyl)-N-(1-(4-cyanopyrimidin-5-yl)-2-(cyclohexylamino)-2-oxoethyl)-1H-imidazole-5-carboxamide] | 2 to 10 µM | 10 to 30 µM | > 30 µM | 10 to 30 µM |  |  |  |  |  | 
Cc1nnsc1C(C(=O)NC1CCCCC1)N(C(=O)c1cnc[nH]1)c1ccc(C(C)(C)C)cc1 (stereo not drawn) [Compound 109] | 2 to 10 µM | 2 to 10 µM | > 30 µM | > 30 µM |  |  |  |  |  | 
CC(C)(C)c1ccc(N(C(=O)c2cnc[nH]2)C(C(=O)NC2CCCCC2)c2cccnc2)c(C#N)n1 (stereo not drawn) [Compound 117] | 2 to 10 µM | 2 to 10 µM | > 30 µM | > 30 µM |  |  |  |  |  | 
CC(C)(C)c1ccc(N(C(=O)[C@H]2COCCN2C#N)C(C(=O)NC2CCCCC2)c2cccnc2)cc1 (single isomer, unassigned) [Compound 202 Isomer 2] |  |  | > 30 µM | < 2 µM | < 2 µM | < 2 µM | < 2 µM |  |  | 
CC1(C)C[C@H](C(=O)N(c2ccc(C(C)(C)C)cc2)C(C(=O)NC2CCCCC2)c2cccnc2)N(C#N)C1 (single isomer, unassigned) [Compound 268 Isomer 2] | < 2 µM | < 2 µM | 10 to 30 µM | < 2 µM |  | 2 to 10 µM |  |  |  | 
CC(C)(C)c1ccc(N(C(=O)[C@H]2C[C@@H](O)CN2C#N)C(C(=O)NC2CCCCC2)c2cccnc2)cc1 (single isomer, unassigned) [Compound 254 Isomer 2] |  |  | > 30 µM | < 2 µM | < 2 µM | < 2 µM |  |  |  | 
COc1cncc(C(C(=O)NC2CCCCC2)N(C(=O)[C@H]2C[C@@H](O)CN2C#N)c2ccc(C(C)(C)C)cc2)c1 (single isomer, unassigned) [679 Isomer 2] |  |  |  | 10 to 30 µM | < 2 µM |  | 2 to 10 µM | 2 to 10 µM | 10 to 30 µM | 
CN1CCN(C#N)C(C(=O)N(c2ccc(C(C)(C)C)cc2)C(C(=O)NC2CCCCC2)c2cccnc2)C1 (single isomer, unassigned) [Compound 217 Isomer 2, N-(4-tert-butylphenyl)-1-cyano-N-[2-(cyclohexylamino)-2-oxo-1-(3-pyridyl)ethyl]-4-methyl-piperazine-2-carboxamide] | < 2 µM | < 2 µM | > 30 µM | < 2 µM |  |  |  |  |  | 
C[C@@H]1C[C@H](C(=O)N(c2ccc(C(C)(C)C)cc2)C(C(=O)NC2CCCCC2)c2cccnc2)N(C#N)C1 (single isomer, unassigned) [Compound 232 Isomer 2] | < 2 µM | < 2 µM | 10 to 30 µM | 2 to 10 µM |  | 2 to 10 µM |  |  |  | 
COc1cncc(C(C(=O)NC2CCCCC2)N(C(=O)[C@H]2C[C@@H](O)CN2C#N)c2ccc(C(C)(C)C)cc2)c1 (single isomer, unassigned) [679 Isomer 1] | < 2 µM | < 2 µM |  | < 2 µM |  | < 2 µM |  |  | > 30 µM | 
CC(C)(C)c1ccc(N(C(=O)C2CN(C#N)C2)C(C(=O)NC2CCCCC2)c2cccnc2)cc1 (stereo not drawn) [Compound 125, N-(4-tert-butylphenyl)-1-cyano-N-[2-(cyclohexylamino)-2-oxo-1-(3-pyridyl)ethyl]azetidine-3-carboxamide] | 10 to 30 µM | 2 to 10 µM | 10 to 30 µM | 10 to 30 µM |  |  |  |  |  | 
COC(C)(C)CNC(=O)C(c1cccnc1)N(C(=O)[C@H]1CCCN1C#N)c1ccc(C(C)(C)C)cc1 (single isomer, unassigned) [Compound 427 Isomer 2] | < 2 µM | < 2 µM |  | < 2 µM |  |  |  |  |  | 2 to 10 µM
CC(C)(C)c1ccc(N(C(=O)c2nsnc2Cl)C(C(=O)NC2CCCCC2)c2cccnc2)cc1 (stereo not drawn) [Compound 123, N-(4-(tert-butyl)phenyl)-4-chloro-N-(2-(cyclohexylamino)-2-oxo-1-(pyridin-3-yl)ethyl)-1,2,5-thiadiazole-3-carboxamide] | < 2 µM | < 2 µM | > 30 µM | < 2 µM |  |  |  |  |  | 
CC(C)(C)c1ccc(N(C(=O)[C@H]2C[C@@H](O)CN2C#N)C(C(=O)NC2CCOCC2)c2cccnc2)cc1 (single isomer, unassigned) [619 Isomer 1] | < 2 µM | 2 to 10 µM |  | < 2 µM |  | < 2 µM |  |  |  | 
CC(C)(O)CNC(=O)C(c1cccnc1)N(C(=O)[C@H]1CCCN1C#N)c1ccc(C(C)(C)C)cc1 (stereo partly drawn) [Compound 1119] | < 2 µM | 2 to 10 µM |  | 2 to 10 µM |  | 2 to 10 µM |  |  |  | 
CC(C)(C)c1ccc(N(C(=O)c2nccnc2C#N)C(C(=O)NC2CCCCC2)c2cccnc2)cc1 (stereo not drawn) [Compound 124, N-(4-(tert-butyl)phenyl)-3-cyano-N-(2-(cyclohexylamino)-2-oxo-1-(pyridin-3-yl)ethyl)pyrazine-2-carboxamide] | 10 to 30 µM | 10 to 30 µM | > 30 µM | > 30 µM |  |  |  |  |  | 
